Source: patent publication US6355799B1, “Substituted benzene compounds, process for their preparation, and herbicidal and defoliant compositions containing them” (ISK Americas Incorporated, priority 1997, dated 2002)

Assays:
Type in all cases: in vivo
[1] = test system: redroot pigweed (Amaranthus retroflexus, AMARE); test: Pre-emerge test, greenhouse herbicide activity screening; details: pre-emerge, 14 days after application, rating scale 0-100
Outline: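 Herbicidal damage is scored 0 (none) to 100 (complete plant death) two weeks after a simulated field spray. Rates span 15–1000 g ai/ha, delivered in acetone at 187 l/ha. For post-emergence treatments, plants have 2–3 leaves and the spray carries 0.25% v/v non-ionic surfactant.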

[2] = test system: barnyardgrass (Echinochloa crus-galli, ECHCG); test: as above; details: pre-emerge, 14 days after application, rating scale 0-100
Outline: (§1)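 Compounds in acetone were track-sprayed at 187 l/ha, 15–1000 g ai/ha, onto sandy loam pots. Pre-emerge seeds were sown one day before spraying, with surface watering afterwards. Post-emerge plants were at the 2–3 leaf stage and sprayed with 0.25% v/v non-ionic surfactant. Injury was rated 0–100 at 14 days.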

[3] = test system: green foxtail (Setaria viridis, SETVI); test: as above; details: pre-emerge, 14 days after application, rating scale 0-100
Outline: as §1

[4] = test system: ivyleaf morningglory (Ipomoea hederacea, IPOHE); test: as above; details: pre-emerge, 14 days after application, rating scale 0-100
Outline: as §1

[5] = test system: johnsongrass (Sorghum halepense, SORHA); test: as above; details: pre-emerge, 14 days after application, rating scale 0-100
Outline: as §1

[6] = test system: lambsquarters (Chenopodium album, CHEAL); test: as above; details: pre-emerge, 14 days after application, rating scale 0-100
Outline: as §1

[7] = test system: large crabgrass (Digitaria sanguinalis, DIGSA); test: as above; details: pre-emerge, 14 days after application, rating scale 0-100
Outline: as §1

[8] = test system: sicklepod (Cassia obtusifolia, CASOB); test: as above; details: pre-emerge, 14 days after application, rating scale 0-100
Outline: as §1

[9] = test system: velvetleaf (Abutilon theophrasti, ABUTH); test: as above; details: pre-emerge, 14 days after application, rating scale 0-100
Outline: as §1

[10] = test system: field corn (Zea mays L., var. Dekalb 535, CORN); test: Pre-emerge test, crop safety; details: pre-emerge, 14 days after application, rating scale 0-100
Outline: (§2)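 Sandy loam pots; pre-emerge: sown 1 d pre-spray, surface-watered after, then bottom-watered. Post-emerge: sown 8–21 d before, 2–3 leaf stage, + 0.25% v/v NIS, bottom-watered. Acetone, 187 l/ha track spray, 15–1000 g ai/ha. 0–100 injury score, day 14.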

[11] = test system: upland rice (Oryza sp., var. Tebonnet, RICE); test: Pre-emerge test, crop safety; details: pre-emerge, 14 days after application, rating scale 0-100
Outline: as §2

[12] = test system: barnyardgrass (Echinochloa crus-galli, ECHCG); test: Post-emerge test, greenhouse herbicide activity screening; details: post-emerge, 14 days after application, rating scale 0-100
Outline: (§3)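 Compounds in acetone were track-sprayed at 15-1000 g ai/ha (187 l/ha) on sandy loam pots: pre-emerge one day after seeding, post-emerge at 2-3 leaf stage with 0.25% v/v non-ionic surfactant. Phytotoxicity was rated 14 days later on a 0 (no damage) to 100 (complete death) scale.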

[13] = test system: green foxtail (Setaria viridis, SETVI); test: as above; details: post-emerge, 14 days after application, rating scale 0-100
Outline: as §3

[14] = test system: ivyleaf morningglory (Ipomoea hederacea, IPOHE); test: as above; details: post-emerge, 14 days after application, rating scale 0-100
Outline: as §3

[15] = test system: johnsongrass (Sorghum halepense, SORHA); test: as above; details: post-emerge, 14 days after application, rating scale 0-100
Outline: as §3

[16] = test system: lambsquarters (Chenopodium album, CHEAL); test: as above; details: post-emerge, 14 days after application, rating scale 0-100
Outline: as §3

[17] = test system: large crabgrass (Digitaria sanguinalis, DIGSA); test: as above; details: post-emerge, 14 days after application, rating scale 0-100
Outline: as §3

[18] = test system: redroot pigweed (Amaranthus retroflexus, AMARE); test: as above; details: post-emerge, 14 days after application
Outline: as §3

[19] = test system: sicklepod (Cassia obtusifolia, CASOB); test: as above; details: post-emerge, 14 days after application, rating scale 0-100
Outline: as §3

[20] = test system: velvetleaf (Abutilon theophrasti, ABUTH); test: as above; details: post-emerge, 14 days after application, rating scale 0-100
Outline: as §3

[21] = test system: field corn (Zea mays L., var. Dekalb 535, CORN); test: Post-emerge test, crop safety; details: post-emerge, 14 days after application, rating scale 0-100
Outline: as §1

[22] = test system: upland rice (Oryza sp., var. Tebonnet, RICE); test: Post-emerge test, crop safety; details: post-emerge, 14 days after application, rating scale 0-100
Outline: as §1

[23] = 63 g ai/ha, rating scale 0-100 (0 no damage, 100 complete death)
[24] = 250 g ai/ha, rating scale 0-100

SMILES: CCOC(=O)CC(C)=NNc1c(OC)c(Cl)cc(F)c1-n1c(=O)cc(C(F)(F)F)n(C)c1=O [15-16]
- phytotoxicity rating AMARE ([1]; 63 g ai/ha): 100
- phytotoxicity rating AMARE ([1]; 250 g ai/ha): 100
- phytotoxicity rating ECHCG ([2]; 63 g ai/ha): 80
- phytotoxicity rating ECHCG ([2]; 250 g ai/ha): 100
- phytotoxicity rating SETVI ([3]; 63 g ai/ha): 100
- phytotoxicity rating SETVI ([3]; 250 g ai/ha): 100
- phytotoxicity rating IPOHE ([4]; 63 g ai/ha): 90
- phytotoxicity rating IPOHE ([4]; 250 g ai/ha): 100
- phytotoxicity rating SORHA ([5]; 63 g ai/ha): 100
- phytotoxicity rating SORHA ([5]; 250 g ai/ha): 100
- phytotoxicity rating CHEAL ([6]; 63 g ai/ha): 100
- phytotoxicity rating CHEAL ([6]; 250 g ai/ha): 100
- phytotoxicity rating DIGSA ([7]; 63 g ai/ha): 100
- phytotoxicity rating DIGSA ([7]; 250 g ai/ha): 100
- phytotoxicity rating CASOB ([8]; 63 g ai/ha): 90
- phytotoxicity rating CASOB ([8]; 250 g ai/ha): 100
- phytotoxicity rating ABUTH ([9]; 63 g ai/ha): 100
- phytotoxicity rating ABUTH ([9]; 250 g ai/ha): 100
- phytotoxicity rating CORN ([10]; 63 g ai/ha): 65
- phytotoxicity rating CORN ([10]; 250 g ai/ha): 100
- phytotoxicity rating RICE ([11]; 63 g ai/ha): 90
- phytotoxicity rating RICE ([11]; 250 g ai/ha): 100
- Post-emerge Herbicidal Activity ECHCG (phytotoxicity rating) ([12]; 63 g ai/ha): 10
- Post-emerge Herbicidal Activity ECHCG (phytotoxicity rating) ([12]; 250 g ai/ha): 90
- Post-emerge Herbicidal Activity SETVI (phytotoxicity rating) ([13]; 63 g ai/ha): 30
- Post-emerge Herbicidal Activity SETVI (phytotoxicity rating) ([13]; 250 g ai/ha): 60
- Post-emerge Herbicidal Activity IPOHE (phytotoxicity rating) ([14]; 63 g ai/ha): 100
- Post-emerge Herbicidal Activity IPOHE (phytotoxicity rating) ([14]; 250 g ai/ha): 100
- Post-emerge Herbicidal Activity SORHA (phytotoxicity rating) ([15]; 63 g ai/ha): 10
- Post-emerge Herbicidal Activity SORHA (phytotoxicity rating) ([15]; 250 g ai/ha): 70
- Post-emerge Herbicidal Activity CHEAL (phytotoxicity rating) ([16]; 63 g ai/ha): 100
- Post-emerge Herbicidal Activity CHEAL (phytotoxicity rating) ([16]; 250 g ai/ha): 100
- Post-emerge Herbicidal Activity DIGSA (phytotoxicity rating) ([17]; 63 g ai/ha): 20
- Post-emerge Herbicidal Activity DIGSA (phytotoxicity rating) ([17]; 250 g ai/ha): 80
- Post-emerge Herbicidal Activity AMARE (phytotoxicity rating) [18, 23]: 80
- Post-emerge Herbicidal Activity AMARE (phytotoxicity rating) [18, 24]: 100
- Post-emerge Herbicidal Activity CASOB (phytotoxicity rating) ([19]; 63 g ai/ha): 80
- Post-emerge Herbicidal Activity CASOB (phytotoxicity rating) ([19]; 250 g ai/ha): 100
- Post-emerge Herbicidal Activity ABUTH (phytotoxicity rating) ([20]; 63 g ai/ha): 100
- Post-emerge Herbicidal Activity ABUTH (phytotoxicity rating) ([20]; 250 g ai/ha): 100
- Post-emerge Herbicidal Activity CORN (crop damage rating) ([21]; 63 g ai/ha): 15
- Post-emerge Herbicidal Activity CORN (crop damage rating) ([21]; 250 g ai/ha): 45
- Post-emerge Herbicidal Activity RICE (crop damage rating) ([22]; 63 g ai/ha): 40
- Post-emerge Herbicidal Activity RICE (crop damage rating) ([22]; 250 g ai/ha): 80

SMILES: COc1c(Cl)cc(F)c(-n2c(=O)cc(C(F)(F)F)n(C)c2=O)c1NN=C1CCc2ccccc2C1 [15-18]
- phytotoxicity rating AMARE ([1]; 63 g ai/ha): 100
- phytotoxicity rating AMARE ([1]; 250 g ai/ha): 100
- phytotoxicity rating ECHCG ([2]; 63 g ai/ha): 75
- phytotoxicity rating ECHCG ([2]; 250 g ai/ha): 100
- phytotoxicity rating SETVI ([3]; 63 g ai/ha): 95
- phytotoxicity rating SETVI ([3]; 250 g ai/ha): 100
- phytotoxicity rating IPOHE ([4]; 63 g ai/ha): 90
- phytotoxicity rating IPOHE ([4]; 250 g ai/ha): 100
- phytotoxicity rating SORHA ([5]; 63 g ai/ha): 75
- phytotoxicity rating SORHA ([5]; 250 g ai/ha): 100
- phytotoxicity rating CHEAL ([6]; 63 g ai/ha): 100
- phytotoxicity rating CHEAL ([6]; 250 g ai/ha): 100
- phytotoxicity rating DIGSA ([7]; 63 g ai/ha): 100
- phytotoxicity rating DIGSA ([7]; 250 g ai/ha): 100
- phytotoxicity rating CASOB ([8]; 63 g ai/ha): 100
- phytotoxicity rating CASOB ([8]; 250 g ai/ha): 100
- phytotoxicity rating ABUTH ([9]; 63 g ai/ha): 100
- phytotoxicity rating ABUTH ([9]; 250 g ai/ha): 100
- phytotoxicity rating CORN ([10]; 63 g ai/ha): 80
- phytotoxicity rating CORN ([10]; 250 g ai/ha): 95
- phytotoxicity rating RICE ([11]; 63 g ai/ha): 90
- phytotoxicity rating RICE ([11]; 250 g ai/ha): 99
- Post-emerge Herbicidal Activity ECHCG (phytotoxicity rating) ([12]; 63 g ai/ha): 10
- Post-emerge Herbicidal Activity ECHCG (phytotoxicity rating) ([12]; 250 g ai/ha): 95
- Post-emerge Herbicidal Activity SETVI (phytotoxicity rating) ([13]; 63 g ai/ha): 20
- Post-emerge Herbicidal Activity SETVI (phytotoxicity rating) ([13]; 250 g ai/ha): 80
- Post-emerge Herbicidal Activity IPOHE (phytotoxicity rating) ([14]; 63 g ai/ha): 90
- Post-emerge Herbicidal Activity IPOHE (phytotoxicity rating) ([14]; 250 g ai/ha): 100
- Post-emerge Herbicidal Activity SORHA (phytotoxicity rating) ([15]; 63 g ai/ha): 0
- Post-emerge Herbicidal Activity SORHA (phytotoxicity rating) ([15]; 250 g ai/ha): 99
- Post-emerge Herbicidal Activity CHEAL (phytotoxicity rating) ([16]; 63 g ai/ha): 100
- Post-emerge Herbicidal Activity CHEAL (phytotoxicity rating) ([16]; 250 g ai/ha): 100
- Post-emerge Herbicidal Activity DIGSA (phytotoxicity rating) ([17]; 63 g ai/ha): 10
- Post-emerge Herbicidal Activity DIGSA (phytotoxicity rating) ([17]; 250 g ai/ha): 100
- Post-emerge Herbicidal Activity AMARE (phytotoxicity rating) [18, 23]: 100
- Post-emerge Herbicidal Activity AMARE (phytotoxicity rating) [18, 24]: 100
- Post-emerge Herbicidal Activity CASOB (phytotoxicity rating) ([19]; 63 g ai/ha): 40
- Post-emerge Herbicidal Activity CASOB (phytotoxicity rating) ([19]; 250 g ai/ha): 100
- Post-emerge Herbicidal Activity ABUTH (phytotoxicity rating) ([20]; 63 g ai/ha): 100
- Post-emerge Herbicidal Activity ABUTH (phytotoxicity rating) ([20]; 250 g ai/ha): 100
- Post-emerge Herbicidal Activity CORN (crop damage rating) ([21]; 63 g ai/ha): 20
- Post-emerge Herbicidal Activity CORN (crop damage rating) ([21]; 250 g ai/ha): 80
- Post-emerge Herbicidal Activity RICE (crop damage rating) ([22]; 63 g ai/ha): 30
- Post-emerge Herbicidal Activity RICE (crop damage rating) ([22]; 250 g ai/ha): 85
